# Source: patent US10390553B2, “Food containing histidine and use thereof” (AJINOMOTO CO., INC., priority 2013, dated 2019)
# Experiments:
# [1] = tested on: males feeling decrease in the sleep quality and fatigue; assay: Cognitive function measurement task CogHealth, histidine ingestion for 14 days; type: in vivo, human; conditions: 1.65 g daily for 14 days vs control food
# Source text: (§1) Twenty males of 45 years old to less than 65 years old, who received total evaluation of not less than 17 points in the “self-diagnosis fatigue questionnaire” (Fatigue Science Laboratory Inc.) performed in advance, felt decrease in the quality of sleep (generally PSQI≥6), and obtained fatigue factor T scores of not less than 60 points in POMS, were selected, and randomly divided into 2 groups (10 per group). A crossover test, including ingesting histidine and control food (equal volume of cellulose) each for 14 days, was performed in each group. As shown in the experiment protocol of FIG. 4A, the test subjects ingested capsules containing 1.65 g of L-histidine as a daily ingestion amount (5 capsules (hard capsule #2 WHITE OP B/C) containing 0.33 g of L-histidine alone), or control sample capsules (5 capsules containing equal volume of cellulose) for 14 days. After the completion of 14 day ingestion, a 14 day resting period was taken. After the resting period, they ingested the capsules not ingested before the resting period. […]
# [2] = tested on: CD2F1 mice after burden of insufficient sleep; assay: Locomotor activities under novel environment after burden of insufficient sleep, single histidine administration; type: in vivo, mouse; conditions: single oral dose 1.2 g/kg body weight at ZT14; measured for 3 hr from ZT15; SD+His vs SD+solvent
# Source text: Using CD2F1 mice (9-10-week-old) and as shown in the experiment protocol of FIG. 2A, a burden of insufficient sleep is applied to sleep disorder group (SD) for one day. The burden was released at ZT6, and the mice were placed back in the home cage and allowed to rest for 6 hr. The control group (CON) was reared without burden in the home cage. A 1.2 w/v % L-histidine solution was orally administered to a histidine administration group (SD+His) at 2 hr after the start of the dark phase after burden of insufficient sleep (ZT14), to achieve an L-histidine dose of 1.2 g/kg body weight. A solvent (water) was orally administered to the solvent administration group (SD+solvent) and the control group (CON). The locomotor activities under novel environment were measured for 3 hr from 3 hr after the start of the dark phase (ZT15).
# [3] = tested on: CD2F1 mice after burden of insufficient sleep; assay: Locomotor activities in the dark phase after burden of insufficient sleep, continuous histidine administration; type: in vivo, mouse; conditions: 1.2 w/v % L-histidine solution drunk for 7 days, 1.2 g/kg body weight/day; SD+His vs SD+solvent
# Source text: Using CD2F1 mice (9-week-old) and as shown in the experiment protocol of FIG. 1A, the mice were chronically allowed to drink a 1.2 w/v % L-histidine solution for 7 days in the histidine ingestion group (SD+His) to achieve a dose of 1.2 g/kg body weight/day. Water was given to the control group (CON) and the solvent ingestion group (SD+solvent). Then, the sleep disorder group (SD) was burdened by insufficient sleep for one day by filling water in the breeding cage at the depth of 0.5 cm. The burden was released at 6 hr from the start of the light phase (ZT6), and the mice were placed back in the home cage and allowed to rest for 6 hr. The control group was reared without burden in the home cage. Thereafter, they were transferred into a cage set under a locomotor activity measurement infrared sensor (Digital acquisition system; NS-DAS-32, Neuroscience Inc, Tokyo, Japan) under fasting and water-deprivation. The locomotor activities were measured and the data was collected by a multidigital counter (Neuroscience Inc, Tokyo, Japan).
# [4] = tested on: males feeling decrease in the sleep quality and fatigue; assay: POMS after histidine ingestion for 14 days (crossover vs control food); type: in vivo, human; conditions: 1.65 g L-histidine daily for 14 days vs control food; paired t-test p<0.05
# Source text: as §1
# [5] = tested on: males feeling decrease in the quality of sleep and fatigue; assay: Cognitive function measurement task CogHealth, single histidine ingestion; type: in vivo, human; conditions: single ingestion 1.65 g, 1 hr after ingestion, vs control food
# Source text: (§2) Twenty males of 45 years old to less than 65 years old, who received total evaluation of not less than 17 points in the “self-diagnosis fatigue questionnaire” (Fatigue Science Laboratory Inc.) performed in advance, felt decrease in the quality of sleep (generally PSQI≥6), and obtained fatigue factor T scores of not less than 60 points in POMS, were selected, and randomly divided into 2 groups (10 per group). The effect of single ingestion of histidine and control food (equal volume of cellulose) was compared in each group. As shown in the experiment protocol of FIG. 5A, the test subjects took the same meals for 3 days before the experiment, fasted for 10 to 14 hr, and ingested capsules containing 1.65 g of L-histidine as a single ingestion amount (5 capsules (hard capsule #2 WHITE OP B/C) containing 0.33 g of L-histidine alone), or control sample capsules (5 capsules containing equal volume of cellulose). Before and 1 hr after ingestion of capsules, the test subjects answered the VAS questionnaires (fatigue, depression, vague sense, drowsiness, clear thinking, motivation, attentiveness, concentration) relating to mental energy, and cognitive function measurement task CogHealth (under conditions with higher difficulty by simultaneously including mental arithmetic task as well) to measure recognition. Furthermore, they answered VAS questionnaires after completion of CogHealth.
# [6] = tested on: males feeling decrease in the quality of sleep and fatigue; assay: Safety of histidine ingestion: general properties, hematology, blood biochemistry; type: in vivo, human; conditions: 2 weeks continuous and single, 1.65 g
# Source text: Twenty males of 45 years old to less than 65 years old, who received total evaluation of not less than 17 points in the “self-diagnosis fatigue questionnaire” (Fatigue Science Laboratory Inc.) performed in advance, felt decrease in the quality of sleep (generally PSQI≥6), and obtained fatigue factor T scores of not less than 60 points in POMS, were selected, and randomly divided into 2 groups (10 per group). A crossover test, including ingesting histidine and control food (equal volume of cellulose) each for 14 days, was performed in each group.
# As shown in the experiment protocol of FIG. 4A, the test subjects ingested capsules containing 1.65 g of L-histidine as a daily ingestion amount (5 capsules (hard capsule #2 WHITE OP B/C) containing 0.33 g of L-histidine alone), or control sample capsules (5 capsules containing equal volume of cellulose) for 14 days. After the completion of 14 day ingestion, a 14 day resting period was taken. After the resting period, they ingested the capsules not ingested before the resting period. […]
# [7] = tested on: males feeling decrease in the sleep quality and fatigue; assay: VAS questionnaires relating to mental energy, histidine ingestion for 14 days; type: in vivo, human; conditions: 1.65 g daily for 14 days vs control food, p<0.05
# Source text: Twenty males of 45 years old to less than 65 years old, who received total evaluation of not less than 17 points in the “self-diagnosis fatigue questionnaire” (Fatigue Science Laboratory Inc.) performed in advance, felt decrease in the quality of sleep (generally PSQI≥6), and obtained fatigue factor T scores of not less than 60 points in POMS, were selected, and randomly divided into 2 groups (10 per group). A crossover test, including ingesting histidine and control food (equal volume of cellulose) each for 14 days, was performed in each group. As shown in the experiment protocol of FIG. 4A, the test subjects ingested capsules containing 1.65 g of L-histidine as a daily ingestion amount (5 capsules (hard capsule #2 WHITE OP B/C) containing 0.33 g of L-histidine alone), or control sample capsules (5 capsules containing equal volume of cellulose) for 14 days. After the completion of 14 day ingestion, a 14 day resting period was taken. After the resting period, they ingested the capsules not ingested before the resting period. On the initial day and the day after completion of the capsule ingestion period, the test subjects answered POMS and the VAS questionnaires (fatigue, depression, vague sense, drowsiness, clear thinking, motivation, attentiveness, concentration) relating to mental energy, and cognitive function measurement task CogHealth (under higher difficulty conditions by simultaneously including mental arithmetic task as well) to measure recognition. Furthermore, they answered VAS questionnaires after completion of CogHealth.
# [8] = tested on: males feeling decrease in the quality of sleep and fatigue; assay: VAS questionnaires relating to mental energy, single histidine ingestion; type: in vivo, human; conditions: single ingestion 1.65 g
# Source text: as §2
# [9] = tested on: clock genes (Bmal1, Dbp, Per1, Per2, Reverb-alpha); assay: Oscillation of expression of clock genes of the auricle in aged mice; type: in vivo, mouse; conditions: aged mice 22 to 24 months, 1.2 w/v % L-histidine solution for 9 days
# Protocol: Aged mice of 22 to 24 months of age being reared under generally light and dark environment were divided into two groups, and the effect of the ingestion of histidine drinking solution was studied. The histidine ingestion period was set to 9 days, during which period aqueous L-histidine solution (corresponding to L-histidine 1.2 w/v %) was given for ingestion by mounting a water inlet on a 50 mL centrifuge tube, whereby about 1.2 g/kg body weight of histidine was ingested per day. In the histidine ingestion group of aged mice, samples were taken from the auricle by changing the position over time on 8 to 9 days from the start of the ingestion of the aqueous histidine solution, and 5 kinds of clock genes (Bmal1, Dbp, Per1, Per2, Reverb-alpha) of the peripheral tissue were analyzed as an index of biorhythm. In the simultaneous stage, the clock genes of the auricle of the aged mice and young mice (4 months old) that ingested tap water were analyzed as comparison targets. […] To be specific, gene expression of the clock gene was quantified at each time point, and the amplitudes and phase of the oscillation of expression of the clock gene of each individual were determined by approximation on the cosine curve. […]
# [10] = tested on: mouse reared under 24 hr dark conditions; assay: Biorhythm phase regulating action, locomotor behavioral pattern in free run cycle under 24 hr dark conditions; type: in vivo; conditions: for phase shift of the behavior start time (circadian rhythm): feed with 45 mg L-histidine per 1 g, 4 hours per day for 4 days
# Protocol: A phase regulating action of histidine on a mouse reared under 24 hr dark conditions was evaluated. When a mouse is reared under 24 hr dark conditions, the mouse starts to act in a cycle specific to the biological clock (also referred to as free run, meaning freed from synchrony), since the outside information (light-dark cycle of light) cannot be obtained. When the free run cycle is converted to 24 hr and indicated as circadian time on the horizontal axis, 12 hours of the former half thereof is called a subjective light period (time zone judged to be daytime by biological clock: CT0-12), and the latter half is called a subjective dark period (time zone judged to be night by biological clock: CT12-24). Under such conditions, locomotor activity of mice (behavioral pattern in free run cycle) was measured using an emission infrared detector type locomotor activities sensor (Digital acquisition system; NS-AS01, Neuroscience Inc, Tokyo, Japan). Furthermore, a feed added with 45 mg of L-histidine per 1 g of a general feed was prepared, and used to replace the general feed for only 4 hours in one day to allow for ingestion. The time zone for ingestion was CT2-6 (subjective light period) or CT14-18 (subjective dark period). Such replacement of the feed was performed for 4 days, and change of phase of the behavioral pattern was judged.
# [11] = tested on: CD2F1 mice after burden of insufficient sleep; assay: Y-maze test, short-working memory after burden of insufficient sleep, single histidine administration; type: in vivo, mouse; conditions: single oral dose 1.2 g/kg body weight at ZT14; Y-maze at ZT15; SD+His vs SD+solvent
# Source text: Using CD2F1 mice (9-week-old) and as shown in the experiment protocol of FIG. 3A, a burden of insufficient sleep is applied to sleep disorder group (SD) for two days. The burden was released at ZT6, and the mice were placed back in the home cage and allowed to rest for 6 hr. The control group (CON) was reared without burden in the home cage. A L-histidine solution was orally administered to a histidine administration group (SD+His) at 2 hr after the start of the dark phase after burden of insufficient sleep (ZT14), to achieve an L-histidine dose of 1.2 g/kg body weight. A solvent (water) was orally administered to the solvent administration group (SD+solvent) and the control group (CON). The Y-maze test was performed at 3 hr from the start of the dark phase (ZT15), and short-working memory was measured.
# [12] = before cognitive functioning test
# [13] = 1 hr after ingestion, before cognitive functioning test, p<0.05
smiles,measurement,setting,value
"N[C@@H](Cc1c[nH]cn1)C(=O)O [histidine, L-histidine]",reaction time of cognitive function measurement task,[1],shortened
same,reaction time of delayed recall task,[1]; paired t-test p<0.05,significantly decreased
same,locomotor activities under novel environment,[2],tendency of suppression of a decrease in the locomotor activities
same,locomotor activities in the dark phase,[3],significant suppression of a decrease of locomotor activities in the dark phase
same,fatigue factor scores of POMS,[4],significantly decreased
same,indices relating to cognition,[5],did not show a significant change
same,work time in 5 kinds of brain function measurement indices,[5],shortened
same,"variation in general properties, hematology, and blood biochemistry",[6],did not show problematic variation
same,VAS sense of attentiveness,[7]; after completion of CogHealth,significantly increased
same,VAS sense of depression,[7]; after completion of CogHealth,significantly decreased
same,VAS sense of motivation,[7]; after completion of CogHealth,significantly increased
same,VAS sense of attentiveness,[7]; [12],significantly increased
same,VAS sense of clear thinking,[7]; [12],significantly increased
same,VAS sense of motivation,[7]; [12],significantly increased
same,VAS sense of concentration,"[8]; 1 hr after ingestion, before cognitive functioning test",tended to increase
same,VAS sense of attentiveness,[8]; [13],significantly increased
same,VAS sense of clear thinking,[8]; [13],significantly increased
same,VAS sense of concentration,[8]; after completion of CogHealth,tended to increase
same,VAS sense of depression,[8]; after completion of CogHealth,tended to decrease
same,VAS sense of vagueness,"[8]; after completion of CogHealth, p<0.05",significantly decreased
same,phase of the oscillation of expression of the clock gene,"[9]; about 1.2 g/kg body weight per day, vs aged mice on tap water",suppressed phase advancement
same,average phase of measured 5 clock genes compared to young mice,[9]; compared to young mice (4 months old),reached the same level as in young mice
same,phase shift of the behavior start time (circadian rhythm),[10]; ingestion in CT2-6 (subjective light period),significantly advances
same,phase shift of the behavior start time (circadian rhythm),[10]; ingestion in CT14-18 (subjective dark period),tended to advance
same,"shortening of the cycle of activity rhythm, mean","[10]; ingestion of histidine in CT2-6, n=4",0.34 ± 0.08 h
same,alternation behavior (short-working memory),[11],significant suppression of a decrease of alternation behavior
